According to US10301299B2, “Glycosidase inhibitors” (Merck Patent GmbH, priority 2013, dated 2019):

Experiments:
[1] = system: Tg(tauP301L)4510 mice; assay: Western blot of O-GlcNAcylation and tau phosphorylation in brain of Tg4510 mice; format: in vivo, mouse
Method: (§1) Animals: Tg(tauP301L)4510 mice were generated as previously described (Santacruz et al., 2005, Science 309: 476-481). Animals were bred and housed at the McLaughlin Research Institute (Great Falls, Mont.). All experiments were approved by the MRI Institutional Animal Care and Use Committee (IACUC).
Tau immunoprecipitation: To immunoprecipitate tau protein from brain lysates a Crosslink Immunoprecipitation kit (Pierce 26147) was used. The A/G resin was crosslinked to 10 μg of the HT7 tau antibody (Thermo Scientific MN1000) or control mouse IgG (Santa Cruz Biotech sc-2025) via the manufacturer's protocol. 250 μg of brain lysates prepared as described below was incubated with the resin-coupled tau antibody overnight at 4-C. Samples were eluted with 50 μl of low pH Elution buffer and immediately centrifuged into collection tubes containing 5 μl of 1M Tris, pH 9.5. Immunoprecipitated tau was subjected to Western blotting as described below.
Western Blot: To examine changes in O-GlcNAcylation and phosphorylation, animals were euthanized 4 h after injection in the acute or subchronic studies and 24 h after the last injection in the chronic study. Hemi-forebrains were rapidly dissected and frozen on dry ice. Tissue samples were homogenized in Phosphosafe Buffer (EMD Chemicals), followed by a low-speed centrifugation (15,000 g) to remove cellular debris. The resulting supernatant (low-speed supernatant, Lss) was assayed to determine protein concentrations by Lowry method. O-GlcNAcylation and phosphorylation were determined in 20 μg protein samples subjected to 4-15% SDS-PAGE (Tris-HCl gels, Bio-Rad), followed by a transfer to nitrocellulose membranes (Invitrogen, IBlot system). Membranes were blocked in Licor blocking buffer at room temperature for 1 h and incubated in primary antibody overnight at 4° C. Total protein O-GlcNAcylation was detected using the RL2 antibody (1:500, ThermoScientific), tau O-GlcNAcylation was detected using the Otau(S400) antibody (1:500) and tau phosphorylation was detected using AT8 (1:500, ThermoScientific), pS396, pS262, pS356 (1:500, Abcam) and pS400 (1:5000, GenScript). GAPDH (1:1000, Abcam) or total tau (1:50,000 ThermoScientific) antibodies served as internal loading controls. Membranes were incubated with species-specific fluorophore-conjugated secondary (1:10,000; Licor) antibodies for 1 h at room temperature and detected using the Licor Odyssey. […]

[2] = system: Tg(tauP301L)4510 mice; assay: Immunohistochemistry (AT8) and Bielschowsky stain of hippocampus in Tg4510 mice; format: in vivo, mouse; settings: chronic 4 months
Method: as §1
Immunohistochemistry: To examine changes in tangle pathology, a hemibrain was dissected and immersion fixed in 10% neutral buffered formalin for 24-48 h and subsequently embedded in paraffin blocks. 10 micron serial coronal sections were mounted onto Superfrost Plus slides, and stained using Bond Intense R kit. To detect dystrophic AT8 neurons, mounted slides were pretreated with antigen retrieval solutions for 10 min followed by washes with BOND wash buffer. Sections were subsequently quenched with hydrogen peroxide in Bond Intense R kit, blocked with M.O.M. blocking buffer (M.O.M Immunodetection Kits, Vector Laboratories), and then incubated with pS202/205 primary antibody (1:500; ThermoScientific). Sections were then incubated sequentially with biotinylated donkey anti-mouse secondary antibody (1:200; Jackson Immunoresearch), Streptavidin-HRP, and 3,3′-diaminobenzidine (both BOND Intense R kit). To detect agyrophilic tangles, sections were deparafinized, rehydrated in distilled water and treated with formaldehyde (4%) overnight at 37° C. Sections were washed in tap water, incubated in a 20% silver nitrate solution for 15 min in the dark, washed, incubated with ammoniated silver solution for 10 min in the dark, washed in ammonia water, and treated with developer. Sections were subsequently washed in ammonia water, distilled water, thiosulfate sodium, dehydrated and mounted.

Structure (SMILES): CCN=C1N[C@@H]2[C@@H](O)[C@H](O)[C@@H](CO)O[C@@H]2S1 [ThiametG]
- tau O-GlcNAcylation elevated (Otau(S400)) ([1]; 4 months of dosing): 9 fold
- levels of total protein O-GlcNAcylation ([1]; 4 months, 500 mg/kg/day): 185%
- tau phosphorylation at S202/205 ([1]; 14 days): returned towards basal levels
- tau phosphorylation at S262 ([1]; 14 days): returned towards basal levels
- tau phosphorylation at S356 ([1]; 14 days): still significantly reduced
- tau phosphorylation at S396 ([1]; 14 days): returned towards basal levels
- total protein O-GlcNAcylation in the CNS ([1]; 14 days of administration, 500 mg/kg/day, vs vehicle): significant increase
- tau phosphorylation at S400 ([1]; acute treatment): did not alter
- increase in tau O-GlcNAcylation (Otau(S400)) ([1]; repeated injection (14 days), vs vehicle): 9 fold
- tau O-GlcNAcylation (Otau(S400)) ([1]; single injection): small increase
- tau phosphorylation at S202/205 ([1]; single injection): reduced
- tau phosphorylation at S262 ([1]; single injection): reduced
- tau phosphorylation at S356 ([1]; single injection): reduced
- tau phosphorylation at S396 ([1]; single injection): reduced
- total protein O-GlcNAcylation in the CNS ([1]; single injection, 500 mg/kg/day, 4 h, vs vehicle): significant increase
- pS202/205 (AT8) positive dystrophic neurons ([2]; CA1 region of the hippocampus): significantly reduced
- tangle pathology (Bielschowsky staining) ([2]; CA1 region of the hippocampus): significant reduction
- pS202/205 (AT8) positive dystrophic neurons ([2]; CA3 region of the hippocampus): significantly reduced
- tangle burden (Bielschowsky staining) ([2]; CA3 region of the hippocampus): no difference
